Results from BindingDB's records for patent US20230271949 (Ascletis Bioscience, 2023).

Target: Glucagon-like peptide 1 receptor (Homo sapiens, UniProt P43220)
Assay: GLP-1R agonist cAMP stimulation Assay
Source text: cAMP Detection Kit, Cisbio (Cat #62AM4PEJ).

Sequence of Glucagon-like peptide 1 receptor (P43220 whole entry): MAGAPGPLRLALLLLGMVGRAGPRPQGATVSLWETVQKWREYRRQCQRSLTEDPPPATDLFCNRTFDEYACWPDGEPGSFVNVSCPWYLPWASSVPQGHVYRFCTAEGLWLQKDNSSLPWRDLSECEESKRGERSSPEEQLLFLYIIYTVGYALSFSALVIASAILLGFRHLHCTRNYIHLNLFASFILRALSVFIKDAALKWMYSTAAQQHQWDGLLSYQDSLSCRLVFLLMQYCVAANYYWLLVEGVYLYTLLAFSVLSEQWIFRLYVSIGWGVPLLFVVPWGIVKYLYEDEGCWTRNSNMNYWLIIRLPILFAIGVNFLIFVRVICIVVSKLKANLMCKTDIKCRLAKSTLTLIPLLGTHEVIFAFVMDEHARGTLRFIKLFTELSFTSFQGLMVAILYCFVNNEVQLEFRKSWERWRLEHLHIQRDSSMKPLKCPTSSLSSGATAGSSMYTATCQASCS

EC50: 0.19 nM
SMILES: Cc1coc2c(COc3cccc(C4=CCN(Cc5nc6cc(C(=O)Nc7cc(F)c8c(c7)C7(CC7)C(=O)N8)ccc6n5C[C@@H]5CCO5)CC4)n3)ccc(C#N)c12 [US20230271949, Example 351]
